Target: T1, human cGAS (residues 161-522) (Homo sapiens, UniProt Q8N884)
T1 construct: human cGAS (residues 161-522); made in house
Experiment: cGAS Activity Assay—Malachite Green
Assay type: biochemical
Details: recombinant purified human cGAS 25 nM; 80 μM ATP, 80 μM GTP, 100 nM ISD; 4 hour at RT; phosphate detection by Malachite Green
Experimental: Compounds were tested for cGAS inhibition in a coupled enzymatic assay based on Phosphate detection by Malachite Green. Final assay conditions were 20 mM TRIS pH 7.5 (Applichem), 5 mM MgCl2 (Sigma) and 0.01% BSA (Sigma) supplemented with 80 μM ATP (Sigma), 80 μM GTP (Sigma) and 100 nM Interferon Stimulating DNA (ISD) (Microsynth). Recombinantly expressed purified human cGAS (residues 161-522) was used at 25 nM.
All compounds were prepared as 10 mM stock solutions in DMSO and a 16 pt dilution series in DMSO with a dilution factor of 2.5 was prepared. 1 μL of DMSO dilution series was transferred to 32.3 μL reaction buffer, mixed by pipetting up/down, spun for 1 minute at 3000 rpm and was visually inspected for precipitation. 5 μL of 3-fold enzyme stock solution were transferred to an empty 384-well Black/Clear Flat Bottom Polystyrene NBS (Corning) rows 3-24. Rows 1-2 were filled with assay buffer. Plates were spun 10 seconds at 1000 rpm (164×g). 5 μL of compound intermediate dilution was added and mixed by pipetting up/down to rows 3-24. Rows 1-2 were filled with 3.1% DMSO assay buffer. Plates were spun 10 seconds at 1000 rpm (164×g). 5 μL 3-fold Nucleotide/DNA mix was added to all wells to start the reaction. Plates were spun 10 seconds at 1000 rpm (164×g) and incubated for 4 hour at room temperature (RT) in the dark. 5 μL 4 U/ml PPase (Sigma) were added to all wells. Plates spun 10 seconds at 1000 rpm (164×g). 10 μL BioMol green Solution (Enzo Life Sciences) was added to all wells. Plates spun 10 seconds at 1000 rpm (164×g) and incubated 30 minutes at RT in the dark. Absorbance data was collected 620 nm on an EnVision Multilable Reader (Perkin Elmer) and the following measurement settings were used: excitation filter photometric was 620 nm; excitation from the top; measurement height was 1 mm; number of flashes was 30; number of flashes integrated was 1.
All plates are checked for abnormalities and outliers in the Blank Control (no protein, row 1) and the Neutral Control (no compound, row 2) are excluded using the 3*SD rule. Data was normalized to 0 and 100% by Blank and Neutral Control and each curve was fitted and judged using the 4 parameter logistic equation to determine the IC50 for cGAS inhibition.
Table 13 provides IC50 values (μM) for cGAS inhibition obtained for particular examples of the present invention as measured by the above-described assay.

T1 sequence (Q8N884 161-522): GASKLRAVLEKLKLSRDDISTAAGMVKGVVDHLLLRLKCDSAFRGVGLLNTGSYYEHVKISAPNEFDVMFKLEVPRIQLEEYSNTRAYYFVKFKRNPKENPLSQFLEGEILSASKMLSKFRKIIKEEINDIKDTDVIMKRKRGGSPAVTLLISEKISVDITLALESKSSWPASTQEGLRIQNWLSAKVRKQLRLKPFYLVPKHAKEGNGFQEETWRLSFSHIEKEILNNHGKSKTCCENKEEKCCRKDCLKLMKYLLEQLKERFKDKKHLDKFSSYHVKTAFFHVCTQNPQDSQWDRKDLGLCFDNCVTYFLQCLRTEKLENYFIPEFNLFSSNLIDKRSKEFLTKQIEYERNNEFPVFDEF

Structure (SMILES) | IC50 [nM]
Cc1oncc1/C(O)=C(\C#N)C(=O)Nc1ccc(C(=O)Nc2ccccc2)cc1 [Example 67, (Z)-4-(2-cyano-3-hydroxy-3-(5-methylisoxazol-4-yl)acrylamido)-N-phenylbenzamide] | 420
Cc1oncc1/C(O)=C(\C#N)C(=O)Nc1ccc(C(=O)N[C@H]2CCN(Cc3ccccc3)C2)cc1 [Example 70, (S,Z)-N-(1-benzylpyrrolidin-3-yl)-4-(2-cyano-3-hydroxy-3-(5-methylisoxazol-4-yl)acrylamido)benzamide] | 1000
Cc1oncc1/C(O)=C(\C#N)C(=O)Nc1cccc(NC(=O)c2ccccc2)c1 [Example 71, (Z)-N-(3-(2-cyano-3-hydroxy-3-(5-methylisoxazol-4-yl)acrylamido)phenyl) benzamide] | 1340
Cc1oncc1/C(O)=C(\C#N)C(=O)Nc1ncc(OC2CCCCC2)cn1 [Example 73, (Z)-2-cyano-N-(5-(cyclohexyloxy)pyrimidin-2-yl)-3-hydroxy-3-(5-methylisoxazol-4-yl)acrylamide] | 140
Cc1oncc1/C(O)=C(\C#N)C(=O)Nc1ccc(Cc2ccccc2)cc1 [Example 74, (Z)-N-(4-benzylphenyl)-2-cyano-3-hydroxy-3-(5-methylisoxazol-4-yl)acrylamide] | 1500
COc1cc(NC(=O)/C(C#N)=C(\O)c2cnoc2C)ccc1C(F)(F)F [Example 76, (Z)-2-cyano-3-hydroxy-N-(3-methoxy-4-(trifluoromethyl)phenyl)-3-(5-methylisoxazol-4-yl)acrylamide] | 4460
Cc1oncc1/C(O)=C(\C#N)C(=O)Nc1ccc(C(=O)N(C)CC2CCCCC2)c(Cl)c1 [Example 77, (Z)-2-chloro-4-(2-cyano-3-hydroxy-3-(5-methylisoxazol-4-yl)acrylamido)-N-(cyclohexylmethyl)-N-methylbenzamide] | 2520
Cc1oncc1/C(O)=C(\C#N)C(=O)Nc1ccc(C(F)(F)F)c(C#N)c1 [Example 78, (Z)-2-cyano-N-(3-cyano-4-(trifluoromethyl)phenyl)-3-hydroxy-3-(5-methylisoxazol-4-yl)acrylamide] | 1640
Cc1oncc1/C(O)=C(\C#N)C(=O)Nc1ncc(C2CCCCC2)cn1 [Example 79, (Z)-2-cyano-N-(5-cyclohexylpyrimidin-2-yl)-3-hydroxy-3-(5-methylisoxazol-4-yl)acrylamide] | 190
COc1ccc(-c2cnc(NC(=O)/C(C#N)=C(\O)c3cnoc3C)nc2)cc1 [Example 80, (Z)-2-cyano-3-hydroxy-N-(5-(4-methoxyphenyl)pyrimidin-2-yl)-3-(5-methylisoxazol-4-yl)acrylamide] | 610
Cc1oncc1/C(O)=C(\C#N)C(=O)Nc1ncc(-c2ccccc2)cn1 [Example 81, (Z)-2-cyano-3-hydroxy-3-(5-methylisoxazol-4-yl)-N-(5-phenylpyrimidin-2-yl)acrylamide] | 670
Cc1oncc1/C(O)=C(\C#N)C(=O)Nc1ncc(Oc2ccccc2)cn1 [Example 82, (Z)-2-cyano-3-hydroxy-3-(5-methylisoxazol-4-yl)-N-(5-phenoxypyrimidin-2-yl)acrylamide] | 300
Cc1oncc1/C(O)=C(\C#N)C(=O)Nc1ncc(C(F)(F)F)cc1Cl [Example 84, (Z)-N-(3-chloro-5-(trifluoromethyl)pyridin-2-yl)-2-cyano-3-hydroxy-3-(5-methylisoxazol-4-yl)acrylamide] | 280
Cc1oncc1/C(O)=C(\C#N)C(=O)Nc1ncc(OCC2CCCC2)cn1 [Example 85, (Z)-2-cyano-N-(5-(cyclopentylmethoxy)pyrimidin-2-yl)-3-hydroxy-3-(5-methylisoxazol-4-yl)acrylamide] | 160
Cc1oncc1/C(O)=C(\C#N)C(=O)Nc1ncc(C#Cc2ccccc2)cn1 [Example 86, (Z)-2-cyano-3-hydroxy-3-(5-methylisoxazol-4-yl)-N-(5-(phenylethynyl)pyrimidin-2-yl)acrylamide] | 480
Cc1oncc1/C(O)=C(\C#N)C(=O)Nc1nccc(CCc2ccccc2)n1 [Example 87, (Z)-2-cyano-3-hydroxy-3-(5-methylisoxazol-4-yl)-N-(4-phenethylpyrimidin-2-yl)acrylamide] | 240
COCCOc1cnc(NC(=O)/C(C#N)=C(\O)c2cnoc2C)nc1 [Example 89, (Z)-2-cyano-3-hydroxy-N-(5-(2-methoxyethoxy)pyrimidin-2-yl)-3-(5-methylisoxazol-4-yl)acrylamide] | 80
Cc1oncc1/C(O)=C(\C#N)C(=O)Nc1ccc([S+]([O-])c2ccccc2)cn1 (stereo not drawn) [Example 90, (Z)-2-cyano-3-hydroxy-3-(5-methylisoxazol-4-yl)-N-(5-(phenylsulfinyl)pyridin-2-yl)acrylamide] | 130
Cc1oncc1/C(O)=C(\C#N)C(=O)Nc1ccc(S(=O)(=O)c2ccccc2)cn1 [Example 95, (Z)-2-cyano-3-hydroxy-3-(5-methylisoxazol-4-yl)-N-(5-(phenylsulfonyl)pyridin-2-yl)acrylamide] | 100
Cc1oncc1/C(O)=C(\C#N)C(=O)Nc1ncc(Sc2ccccc2)cn1 [Example 97, (Z)-2-cyano-3-hydroxy-3-(5-methylisoxazol-4-yl)-N-(5-phenylsulfanylpyrimidin-2-yl)prop-2-enamide] | 210
CCOc1cnc(NC(=O)/C(C#N)=C(\O)c2cnoc2C)nc1 [Example 98, (Z)-2-cyano-N-(5-ethoxypyrimidin-2-yl)-3-hydroxy-3-(5-methylisoxazol-4-yl)acrylamide] | 80
Cc1oncc1/C(O)=C(\C#N)C(=O)Nc1ncc(C(=O)N(C)c2ccccc2)cn1 [Example 99, 2-[[(Z)-2-cyano-3-hydroxy-3-(5-methylisoxazol-4-yl)prop-2-enoyl]amino]-N-methyl-N-phenyl-pyrimidine-5-carboxamide] | 90

Next, values leading:

IC50 [nM] | Structure (SMILES)
210 | Cc1oncc1/C(O)=C(\C#N)C(=O)Nc1nccc(-c2ccccc2)n1 [Example 68, (Z)-2-cyano-3-hydroxy-3-(5-methylisoxazol-4-yl)-N-(4-phenylpyrimidin-2-yl)acrylamide]
2000 | Cc1oncc1/C(O)=C(\C#N)C(=O)Nc1cccc(C(=O)Nc2ccccc2)c1 [Example 69, (Z)-3-(2-cyano-3-hydroxy-3-(5-methylisoxazol-4-yl)acrylamido)-N-phenylbenzamide]
680 | Cc1oncc1/C(O)=C(\C#N)C(=O)Nc1ccc(C(=O)NCc2ccccc2)cc1 [Example 72, (Z)-N-benzyl-4-(2-cyano-3-hydroxy-3-(5-methylisoxazol-4-yl)acrylamido)benzamide]
1900 | Cc1cc(NC(=O)/C(C#N)=C(\O)c2cnoc2C)ccc1C(F)(F)F [Example 75, (Z)-2-cyano-3-hydroxy-N-(3-methyl-4-(trifluoromethyl)phenyl)-3-(5-methylisoxazol-4-yl)acrylamide]
1020 | Cc1oncc1/C(O)=C(\C#N)C(=O)Nc1ccc(Oc2ccccc2)cn1 [Example 83, (Z)-2-cyano-3-hydroxy-3-(5-methylisoxazol-4-yl)-N-(5-phenoxypyridin-2-yl)acrylamide]
160 | Cc1oncc1/C(O)=C(\C#N)C(=O)Nc1ncc(CC2CCCCC2)cn1 [Example 88, (Z)-2-cyano-N-(5-(cyclohexylmethyl)pyrimidin-2-yl)-3-hydroxy-3-(5-methylisoxazol-4-yl)acrylamide]
100 | Cc1oncc1/C(O)=C(\C#N)C(=O)Nc1ccc(S(C)(=O)=O)cn1 [Example 91, (Z)-2-cyano-3-hydroxy-3-(5-methylisoxazol-4-yl)-N-(5-(methylsulfonyl)pyridin-2-yl)acrylamide]
250 | Cc1oncc1/C(O)=C(\C#N)C(=O)Nc1ncc(C(F)(F)F)cc1F [Example 92]
140 | Cc1oncc1/C(O)=C(\C#N)C(=O)Nc1ccc(S(=O)(=O)NC(C)(C)C)cn1 [Example 93, (Z)-N-(5-(N-(tert-butyl)sulfamoyl)pyridin-2-yl)-2-cyano-3-hydroxy-3-(5-methylisoxazol-4-yl)acrylamide]
90 | Cc1oncc1/C(O)=C(\C#N)C(=O)Nc1ncc(C(F)(F)F)cn1 [Example 94, (Z)-2-cyano-3-hydroxy-3-(5-methylisoxazol-4-yl)-N-(5-(trifluoromethyl)pyrimidin-2-yl)acrylamide]
70 | Cc1oncc1/C(O)=C(\C#N)C(=O)Nc1ncc(S(=O)(=O)N(C)C)cn1 [Example 96, (Z)-2-cyano-N-(5-(N,N-dimethylsulfamoyl)pyrimidin-2-yl)-3-hydroxy-3-(5-methylisoxazol-4-yl)acrylamide]

— US20230242494A1, “MALONITRILE DERIVATIVES” (Hoffmann-La Roche Inc., priority 2020, published 2023)
